Legend:
[1] = CR-4 dependent inhibition of VEGF secretion from cell lines (VEGF-165 ELISA of medium); format: cell-based; conditions: Homo sapiens; all cell lines; 10^6 cells/ml incubated 5 hrs with compound, washed, fresh medium 24 hrs; FIGS. 1 to 4
Protocol: VEGF secretion from the breast cancer cell lines HTB-133 (KDR+), HTB-131 (KDR−) and MDA-231, HTB-181 prostate cancer cell line, HTB-72 melanoma cell line, CR2-1730 human umbilical vascular endothelial (HUV-EC-C) cell line and normal HUVEC primary cells was measured as follows.
Medium was collected and analysed for the presence of VEGF using VEGF-165 ELISA kit (R&D Systems).
CR-4 dependent inhibition of VEGF secretion from breast, prostate, melanoma and HUVEC cell lines.
10^6 cells/ml of each cell lines were incubated for 5 hrs. with various concentrations of CR-4. Cells were washed twice in PBS to remove CR4 and fresh medium was added for 24 hrs. Medium was collected and analysed for the presence of VEGF using VEGF-165 ELISA kit (R&D Systems).

HUVEC = test: Inhibition of HUVEC growth by CR-4 induced VEGF depleted media of breast cancer cell lines ([3H]-Thymidine incorporation); format: cell-based, human; conditions: FIG. 5
Protocol: CR-4 dependent inhibition of VEGF secretion results in the inhibition of HUVEC growth.
After an incubation for 5 hrs. with various concentrations of CR-4 the wells were washed twice and fresh HUVEC medium was added for 24 hrs. This medium with or without 10 ng/ml of recombinant VEGF was then transferred to parallel wells containing 10^5 cells/ml of HUVEC that were plated and grown in HUVEC medium for 24 hrs. Radioactive labelled [^3H]-Thymidine was added to HUVEC wells over night. Cells were harvested and their [^3H]-Thymidine incorporation was measured.

[2] = system: VEGF secretion from HTB-133 and MDA-231 cells; test: CR11 and CR19 dependent inhibition of VEGF secretion from breast cancer cell lines (VEGF-165 ELISA of medium); format: cell-based; conditions: Homo sapiens, MDA-MB-231, 10^6 cells/ml incubated 5 hours with compound, washed, fresh medium 24 hours, FIGS. 6 and 7
Protocol: CR11 and CR19 dependent inhibition of VEGF secretion from breast cancer cell lines.
Procedure: 10^6 cells/ml of each of HTB-133 and MDA-231 cells were incubated for 5 hours with various concentrations of CR11 or CR19. Cells were washed twice in PBS to remove CR11 and CR19 and fresh medium was added for 24 hours. Medium was collected and analysed for the presence of VEGF using VEGF-165 ELISA kit (R&D Systems).

SMILES	IC50 [1]	Effect of recombinant VEGF on the inhibition of HUVEC growth (HUVEC; 10 ng/ml recombinant VEGF added to the conditioned medium)	IC50 (HUVEC; Homo sapiens, medium of HTB-133 (KDR+) and HTB-131 (KDR-) cells treated 5 hrs with compound, transferred to HUVEC, [3H]-Thymidine incorporation)	IC50 [2]
N#C/C(=C\C=C\c1ccc(O)c(O)c1)C(=O)NCc1ccccc1 [CR4, (E,E)-2-(Benzylaminocarbonyl)-3-(3,4-dihydroxystyryl)acrylonitrile]	10 to 30 nM	rescued by recombinant VEGF	20 to 30 nM	–
COc1cc(/C=C/C=C(\C#N)C(=O)NCc2ccc(O)c(O)c2)cc(OC)c1O [CR11, (E,E)-2-(3,4-Dihydroxybenzylaminocarbonyl)-3-(3,5-dimethoxy-4-hydroxystyryl)acrylonitrile]	–	–	–	~30 nM
N#C/C(=C\C=C\c1ccccc1)C(=O)NCc1ccc(O)c(O)c1 [CR19, (E,E)-2-(3,4 Dihydroxybenzylaminocarbonyl)-3-styrylacrylonitrile]	–	–	–	~30 nM

— patent US20060241084A1, “Inhibition of vascular endothelial growth factor” (THE HOSPITAL FOR SICK CHILDREN, priority 2002, published 2006)
